Results taken from patent US9121026B2 (priority 2004, dated 2015).

Tests used:
[1] = tested on: RE700A i PCDR1-HXT7 (IT[CDR1]); experiment: Growth inhibition of IT[CDR1] by 2-DG; assay type: cell-based, Saccharomyces cerevisiae; details: 20 h 28° C., maltose, regarding growth in the absence of 2-DG
Description: FIG. 7: Growth inhibition of RE700A and IT[CDR1] by 2-DG. RE700A and IT[CDR1] were incubated for 20 h at 28° C. with maltose (2% (w/v)) as the sole carbon source and increasing 2-DG concentrations as indicated. The optical density was measured at 600 nm every 15 minutes and the integral under the growth curve was calculated. Inhibition of growth is shown in percent regarding growth in the absence of 2-DG. Growth of IT[CDR1] was inhibited by 45% at a 2-DG concentration of 0.01% (w/v), by 91% at a 2-DG concentration of 0.03% (w/v), by 92% at a 2-DG concentration of 0.05% (w/v), by 92% at a 2-DG concentration of 0.1% (w/v), by 94% at a 2-DG concentration of 1% (w/v), by 95% at a 2-DG concentration of 2% (w/v) and by 95% at a 2-DG concentration of 3% (w/v).
(3) Integrated screening system for inhibitors of PCDR1: S. cerevisiae strain RE700A was genetically modified as described in Example 1 and 2 to yield strain IT[CDR1], chromosomally expressing HXT7 under the control of the promoter of CDR1 (PCDR1) (for the complete genotype see Table 1). The inhibition of growth of IT[CDR1] by 2-DG was tested. The growth of this strain was inhibited by more than 90% at a 2-DG concentration of 0.03% (w/v) (FIG. 7)

[2] = tested on: RE700A Δpdr1 tok1::PPDR5long-HXT7; experiment: Growth of RE700A Δpdr1 tok1::PPDR5long-HXT7 in the presence of 2-DG; assay type: cell-based, Saccharomyces cerevisiae; details: RE700A Δpdr1 tok1::PPDR5long-HXT7, 20 h 28° C.
Description: (B) Relative growth of RE700A tok1::PPDR5long-HXT7, RE700A Δpdr1 tok1::PPDR5long-HXT7, RE700A Δpdr3 tok1::PPDR5long-HXT7 and RE700A Δpdr1,3 tok1::PPDR5long-HXT7 in the presence of 2-DG. Cells were incubated for 20 h at 28° C. with 2-DG at different concentrations. […] The standard error of the mean (n=5) is indicated.

`O=CC[C@@H](O)[C@H](O)[C@H](O)CO` [2-DG, 2-deoxy-glucose] gave an Inhibition of growth ([1]; 0.01% (w/v) 2-DG) of 45%, an Inhibition of growth ([1]; 0.05% (w/v) 2-DG) of 92% and an Inhibition of growth ([1]; 0.1% (w/v) 2-DG) of 92%. It also gave an Inhibition of growth ([1]; 1% (w/v) 2-DG) of 94%, an Inhibition of growth ([1]; 2% (w/v) 2-DG) of 95% and an Inhibition of growth ([1]; 3% (w/v) 2-DG) of 95%. The “2-DG concentration for 50% growth inhibition” value [2] was 0.068 % (w/v).
